Measured values taken from patent publication US20190352297A1, “SELECTIVE AURORA A KINASE INHIBITORS” (UNIVERSITAT BERN, priority 2017, published 2019).

Assays:
Aurora A (Trp277) = target: T1, Aurora A (Trp277) (Homo sapiens, UniProt O14965); experiment: Intrinsic tryptophan fluorescence; type: binding
T1 construct: human Aurora A kinase domain (residues 122-403 in the pET24-d vector); His-tag (cleaved yes); made in house; host or cells: E. coli BL21 (DE3) Rosetta
T1 sequence (O14965 122-403): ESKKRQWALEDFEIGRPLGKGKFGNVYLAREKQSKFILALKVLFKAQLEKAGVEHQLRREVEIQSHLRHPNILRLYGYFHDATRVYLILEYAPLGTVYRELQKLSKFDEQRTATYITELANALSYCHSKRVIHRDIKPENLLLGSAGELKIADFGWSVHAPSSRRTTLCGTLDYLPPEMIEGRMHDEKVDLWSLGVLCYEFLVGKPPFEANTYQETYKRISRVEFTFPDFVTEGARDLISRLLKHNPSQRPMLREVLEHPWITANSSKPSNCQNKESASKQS
Description: Binding experiments were performed by mixing Aurora A (500 nM, 375 nM, and 150 nM for 77, 9, and 88, respectively) with varying concentrations (0-100 μM) of the different compounds in buffer (final DMSO concentration 1%), followed by incubation for 15 min at room temperature. Tryptophan fluorescence spectra were recorded at room temperature using an Infinite M1000 Pro plate reader (Tecan) and Corning 96 well half area, flat bottom, non-binding surface, black polystyrene plates. Excitation occurred at 284 nm (bandwidth ±5 nm) and emission at 340 nm (bandwidth ±10 nm). The gain was calculated from the well with the highest protein concentration. Each measurement was done in triplicate.

Aurora C = target: T2, Aurora C (Homo sapiens, UniProt Q9UQB9); experiment: Active site directed binding competition assay, KD (DiscoveRx)
T2 construct: purchased DiscoveRx scanMAX
T2 sequence (Q9UQB9 1-309): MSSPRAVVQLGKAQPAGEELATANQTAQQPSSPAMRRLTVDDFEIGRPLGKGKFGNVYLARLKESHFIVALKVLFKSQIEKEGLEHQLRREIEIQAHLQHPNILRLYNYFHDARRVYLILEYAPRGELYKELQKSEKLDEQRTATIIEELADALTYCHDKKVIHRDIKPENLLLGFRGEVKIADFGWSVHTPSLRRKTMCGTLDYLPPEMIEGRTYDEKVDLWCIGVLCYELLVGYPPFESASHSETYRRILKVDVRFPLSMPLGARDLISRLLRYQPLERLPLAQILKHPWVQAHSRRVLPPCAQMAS
Description: (§1) The kinome profiling of compound 9 was conducted by DiscoveRx. In total, 456 kinases were assayed (scanMAX). For most assays, kinase-tagged T7 phage strains were grown in parallel in 24-well blocks in an E. coli host derived from the BL21 strain. E. coli were grown to log-phase and infected with T7 phage from a frozen stock (multiplicity of infection=0.4) and incubated with shaking at 32° C. until lysis (90-150 minutes). The lysates were centrifuged (6000 g) and filtered (0.2 μm) to remove cell debris. The remaining kinases were produced in HEK-293 cells and subsequently tagged with DNA for qPCR detection. […] The liganded beads were blocked with excess biotin and washed with blocking buffer (SeaBlock (Pierce), 1% BSA, 0.05% Tween 20, 1 mM DTT) to remove unbound ligand and to reduce non-specific phage binding. […] Test compounds were prepared as 40× stocks in 100% DMSO and directly diluted into the assay. All reactions were performed in polypropylene 384-well plates in a final volume of 0.04 ml. […] The kinase concentration in the eluates was measured by qPCR. […] was screened at 1 μM, and results for primary screen binding interactions were reported as % of control (PoC). PoC=(test compound signal−positive control signal)/(DMSO signal−positive control signal). PoC values at 1 μM 9 for all kinases were visualized using TREEspot (DiscoveRx). […] KD values were determined with a standard dose-response curve using the Hill equation.

AuroraB/INCENP complex = target: T3, AuroraB/INCENP complex (Homo sapiens, UniProt Q96GD4); experiment: HTRF kinase assay, AuroraB/INCENP complex; type: biochemical
T3 construct: purchased Millipore 14-835
T3 sequence (Q96GD4 whole entry): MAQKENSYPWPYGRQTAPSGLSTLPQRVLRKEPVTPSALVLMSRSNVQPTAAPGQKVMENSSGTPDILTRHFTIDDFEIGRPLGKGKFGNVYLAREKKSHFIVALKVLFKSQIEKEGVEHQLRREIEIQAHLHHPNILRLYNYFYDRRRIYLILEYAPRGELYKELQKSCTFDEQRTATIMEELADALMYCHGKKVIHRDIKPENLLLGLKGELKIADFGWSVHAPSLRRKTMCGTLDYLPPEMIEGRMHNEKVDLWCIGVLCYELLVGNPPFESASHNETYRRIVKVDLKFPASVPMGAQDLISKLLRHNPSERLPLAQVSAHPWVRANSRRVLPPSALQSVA
T3 sequence (Q9NQS7 whole entry partner): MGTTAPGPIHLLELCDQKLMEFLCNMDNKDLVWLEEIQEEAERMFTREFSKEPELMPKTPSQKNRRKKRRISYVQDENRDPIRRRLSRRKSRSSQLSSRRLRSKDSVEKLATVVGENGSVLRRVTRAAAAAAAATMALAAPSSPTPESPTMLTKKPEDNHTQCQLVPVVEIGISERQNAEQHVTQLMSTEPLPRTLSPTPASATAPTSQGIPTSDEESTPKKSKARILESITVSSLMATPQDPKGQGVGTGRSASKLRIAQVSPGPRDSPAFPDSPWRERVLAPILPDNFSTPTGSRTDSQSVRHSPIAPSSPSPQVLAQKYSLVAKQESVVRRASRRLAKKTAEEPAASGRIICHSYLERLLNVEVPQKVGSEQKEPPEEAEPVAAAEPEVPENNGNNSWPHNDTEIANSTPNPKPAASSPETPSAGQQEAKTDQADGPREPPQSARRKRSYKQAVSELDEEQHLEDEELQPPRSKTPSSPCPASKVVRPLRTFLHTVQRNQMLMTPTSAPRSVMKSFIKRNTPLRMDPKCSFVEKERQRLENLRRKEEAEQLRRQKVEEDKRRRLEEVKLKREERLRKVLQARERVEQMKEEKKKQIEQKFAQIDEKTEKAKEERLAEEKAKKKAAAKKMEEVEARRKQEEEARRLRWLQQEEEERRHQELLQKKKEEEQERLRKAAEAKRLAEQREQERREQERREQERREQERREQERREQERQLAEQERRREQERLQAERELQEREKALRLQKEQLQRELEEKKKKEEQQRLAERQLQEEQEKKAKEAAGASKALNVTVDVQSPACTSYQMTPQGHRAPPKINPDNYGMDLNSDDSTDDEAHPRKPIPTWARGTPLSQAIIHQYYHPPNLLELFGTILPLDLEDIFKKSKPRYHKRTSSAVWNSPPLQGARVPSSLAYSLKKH
Description: Aurora A and AuroraB kinases were assayed using the homogeneous time-resolved fluorescence (HTRF) KinEASE STK2 kit from Cisbio (France). […] For both enzymes, the reactions were run for 30 min at room temperature and stopped by the addition of 10 μL of detection buffer containing EDTA, antiphospho-Ser/Thr antibody labelled with europium cryptate, and XL-665 conjugated streptavidin (62.5 nM final concentration). After incubation at room temperature for one hour, fluorescence was measured at 620 nm (europium cryptate) and 665 nm (XL-665) after excitation at 317 nm (lag time 60 μs, integration time 500 μs) using a Tecan Infinite M1000 PRO microplate reader (Greiner 384-well plates, white, non-binding, small volume). The ratio of fluorescence (665 nm/620 nm) was calculated for each well and the results were expressed as follows: specific signal=ratio (sample)−ratio (negative control), where ratio=665 nm/620 nm×10^4. Compounds were measured in threefold serial dilutions at 10 different concentrations, covering the concentration range from no to full inhibition. Each concentration was measured in duplicates, and two independent determinations were made for each IC50 value. IC50 curves were generated using a four-parameter logistic model (XLfit from IDBS).

456 kinases = experiment: Kinome scan of 456 kinases (scanMAX); type: binding; settings: screened at 1 μM
Description: as §1, with “signal).” for “signal). PoC values at 1 μM 9 for all kinases were visualized using TREEspot (DiscoveRx).”

HeLa cells = experiment: Mitotic index of HeLa cells; type: cell-based, human
Description: HeLa Kyoto cells were cultured in high-glucose DMEM with GlutaMAX (Life Technologies) media supplemented with 10% fetal calf serum (FCS) in a humidified 5% CO2 incubator at 37° C. For plasmid transfections, cells were seeded at 80-90% confluence. 4 μg of plasmid DNA in 100 μl OptiMEM and 4 μl of Lipofectamine 2000 (Life Technologies) in 100 μl OptiMEM were incubated in parallel for 5 minutes, mixed for 20 minutes and added to each well. All Aurora A clones were constructed using full-length Aurora A as a template with appropriate PCR primer pairs. […] For determining the mitotic index and the chromosome misalignment phenotype, cells were incubated with various concentrations of compounds for 20 h before analysis. […] For rescue experiments, HeLa Kyoto cells were first transfected with GFP-Aurora A, GFP-Aurora AR137A or GFP-Aurora AW277A for 20 h, followed by incubation with 9 for another 20 h before cells were fixed with cold methanol and stained.

tryptophan fluorescence, environment of Trp277 (Aurora A (Trp277)): perturbed the environment of Trp277
Kd (Aurora C): 11 nM
IC50 (AuroraB/INCENP complex; 20 μM ATP, HTRF, read-out: IC50 Aurora B in complex with INCENP (biochemical)): 149 ± 3 nM
weaker inhibition of Aurora B/INCENP compared to KD measured with free Aurora B (AuroraB/INCENP complex; IC50 Aurora B/INCENP versus KD free Aurora B): 15 fold
SMILES: CCc1ccc(N=C2SC(=Cc3ccnc(Nc4ccc(C(=O)O)cn4)c3)C(=O)N2C)cc1 [Compound 9]
kinome selectivity (456 kinases): remarkably selective
mitotic index (HeLa cells; 4 μM): ~15%
mitotic index (HeLa cells; 10 μM): ~25%
mitotic index (HeLa cells; 25 μM): ~40%
